Results: ChEMBL document CHEMBL5550200, “Back-Pocket Optimization of 2-Aminopyrimidine-Based Macrocycles Leads to Potent EPHA2/GAK Kinase Inhibitors” (J Med Chem, 2024)
In brackets after ≈: the same amount, converted by molar mass.

Key:
[1] = Metabolic stability in Sprague-Dawley rat liver microsomes assessed as half life at 10 uM preincubated for 5 mins followed by NADPH regenerating system measured upto 60 min by HPLC analysis; format: ADME, Microsome; settings: time < 65 min
[2] = target: T1, Vascular endothelial growth factor receptor 1 (Homo sapiens, UniProt P17948); test: Induction of stabilization of recombinant FLT1 (unknown origin) assessed as change in melting temperature by differential scanning fluorimetry assay
[3] = target: Ephrin type-A receptor 7 (Homo sapiens) (UniProt Q15375); test: Induction of stabilization of recombinant EPHA7 (unknown origin) assessed as change in melting temperature by differential scanning fluorimetry assay
[4] = target: Fibroblast growth factor receptor 2 (Homo sapiens) (UniProt P21802)
Description: Induction of stabilization of recombinant FGFR2 (unknown origin) assessed as change in melting temperature by differential scanning fluorimetry assay

[5] = target: T2, Ephrin type-B receptor 1 (Homo sapiens) (UniProt P54762); test: Induction of stabilization of recombinant EPHB1 (unknown origin) assessed as change in melting temperature by differential scanning fluorimetry assay
T2 sequence (whole entry): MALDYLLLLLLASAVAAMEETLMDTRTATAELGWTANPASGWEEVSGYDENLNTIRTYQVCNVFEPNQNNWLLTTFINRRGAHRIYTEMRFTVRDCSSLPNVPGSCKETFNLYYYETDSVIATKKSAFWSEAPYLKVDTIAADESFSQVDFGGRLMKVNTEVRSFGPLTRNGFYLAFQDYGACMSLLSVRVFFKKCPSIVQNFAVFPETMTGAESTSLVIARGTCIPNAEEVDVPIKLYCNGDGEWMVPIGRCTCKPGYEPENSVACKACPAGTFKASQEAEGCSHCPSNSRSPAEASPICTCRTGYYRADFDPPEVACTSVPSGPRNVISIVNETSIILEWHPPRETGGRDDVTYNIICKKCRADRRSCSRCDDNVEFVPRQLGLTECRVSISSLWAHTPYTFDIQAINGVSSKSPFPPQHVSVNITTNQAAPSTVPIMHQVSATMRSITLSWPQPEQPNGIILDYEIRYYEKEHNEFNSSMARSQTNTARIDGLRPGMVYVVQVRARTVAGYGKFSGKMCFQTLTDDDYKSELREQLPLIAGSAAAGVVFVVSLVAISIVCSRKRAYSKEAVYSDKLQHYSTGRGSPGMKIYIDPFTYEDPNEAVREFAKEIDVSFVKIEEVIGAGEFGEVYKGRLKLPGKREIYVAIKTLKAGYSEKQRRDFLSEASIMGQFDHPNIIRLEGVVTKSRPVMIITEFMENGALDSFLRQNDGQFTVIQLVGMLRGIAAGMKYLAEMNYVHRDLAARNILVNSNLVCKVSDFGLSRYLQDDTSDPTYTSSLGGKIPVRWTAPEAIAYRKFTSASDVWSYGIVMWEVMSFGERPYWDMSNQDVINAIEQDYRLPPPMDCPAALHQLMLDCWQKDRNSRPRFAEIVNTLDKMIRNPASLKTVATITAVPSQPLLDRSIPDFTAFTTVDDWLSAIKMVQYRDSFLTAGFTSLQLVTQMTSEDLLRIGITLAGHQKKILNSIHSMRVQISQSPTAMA

Ephrin type-A receptor 4 [6] = target: T3, Ephrin type-A receptor 4 (Homo sapiens, UniProt P54764); test: Induction of stabilization of recombinant EPHA4 (unknown origin) assessed as change in melting temperature by differential scanning fluorimetry assay
[7] = target: Ephrin type-A receptor 5 (Homo sapiens) (UniProt P54756)
Description: Induction of stabilization of recombinant EPHA5 (unknown origin) assessed as change in melting temperature by differential scanning fluorimetry assay

dengue virus type 2 = test: Antiviral activity against DENV-2 New Guinea C infected in human Huh-7 cells assessed as reduction in virus induced cytopathic effect preincubated with cells for 1 hr followed by viral infection and measured after 45 to 48 hrs by luciferase assay; format: functional, organism-based; settings: for EC90: time 45-48 hrs
[8] = target: T4, Fibroblast growth factor receptor 1 (Homo sapiens, UniProt P11362)
Target sequence in this assay (P11362 22-822 limits assumed): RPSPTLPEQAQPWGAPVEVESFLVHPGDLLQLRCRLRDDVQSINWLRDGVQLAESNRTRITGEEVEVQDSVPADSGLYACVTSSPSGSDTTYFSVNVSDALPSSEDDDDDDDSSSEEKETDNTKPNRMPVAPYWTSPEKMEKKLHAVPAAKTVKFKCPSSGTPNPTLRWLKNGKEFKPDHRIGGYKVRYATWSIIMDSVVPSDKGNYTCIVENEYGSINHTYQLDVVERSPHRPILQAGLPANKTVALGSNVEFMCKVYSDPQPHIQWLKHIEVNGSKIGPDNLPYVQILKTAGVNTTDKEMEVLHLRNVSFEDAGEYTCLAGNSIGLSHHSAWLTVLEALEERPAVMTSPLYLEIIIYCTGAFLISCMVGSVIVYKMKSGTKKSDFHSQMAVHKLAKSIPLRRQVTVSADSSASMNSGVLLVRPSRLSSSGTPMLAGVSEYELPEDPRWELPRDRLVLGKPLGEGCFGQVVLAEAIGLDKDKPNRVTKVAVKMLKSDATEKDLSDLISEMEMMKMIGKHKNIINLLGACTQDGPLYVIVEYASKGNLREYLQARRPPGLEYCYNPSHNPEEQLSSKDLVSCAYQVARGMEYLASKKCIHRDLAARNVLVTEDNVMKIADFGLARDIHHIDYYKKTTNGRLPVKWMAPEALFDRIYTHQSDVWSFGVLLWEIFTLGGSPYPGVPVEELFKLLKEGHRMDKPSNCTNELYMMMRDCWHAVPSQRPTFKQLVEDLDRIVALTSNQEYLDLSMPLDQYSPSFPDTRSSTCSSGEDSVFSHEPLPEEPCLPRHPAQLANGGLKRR
Description: Induction of stabilization of recombinant FGFR1 (unknown origin) assessed as change in melting temperature by differential scanning fluorimetry assay

[9] = target: T5, Ephrin type-B receptor 3 (Homo sapiens) (UniProt P54753); test: Induction of stabilization of recombinant EPHB3 (unknown origin) assessed as change in melting temperature by differential scanning fluorimetry assay
T5 sequence (whole entry): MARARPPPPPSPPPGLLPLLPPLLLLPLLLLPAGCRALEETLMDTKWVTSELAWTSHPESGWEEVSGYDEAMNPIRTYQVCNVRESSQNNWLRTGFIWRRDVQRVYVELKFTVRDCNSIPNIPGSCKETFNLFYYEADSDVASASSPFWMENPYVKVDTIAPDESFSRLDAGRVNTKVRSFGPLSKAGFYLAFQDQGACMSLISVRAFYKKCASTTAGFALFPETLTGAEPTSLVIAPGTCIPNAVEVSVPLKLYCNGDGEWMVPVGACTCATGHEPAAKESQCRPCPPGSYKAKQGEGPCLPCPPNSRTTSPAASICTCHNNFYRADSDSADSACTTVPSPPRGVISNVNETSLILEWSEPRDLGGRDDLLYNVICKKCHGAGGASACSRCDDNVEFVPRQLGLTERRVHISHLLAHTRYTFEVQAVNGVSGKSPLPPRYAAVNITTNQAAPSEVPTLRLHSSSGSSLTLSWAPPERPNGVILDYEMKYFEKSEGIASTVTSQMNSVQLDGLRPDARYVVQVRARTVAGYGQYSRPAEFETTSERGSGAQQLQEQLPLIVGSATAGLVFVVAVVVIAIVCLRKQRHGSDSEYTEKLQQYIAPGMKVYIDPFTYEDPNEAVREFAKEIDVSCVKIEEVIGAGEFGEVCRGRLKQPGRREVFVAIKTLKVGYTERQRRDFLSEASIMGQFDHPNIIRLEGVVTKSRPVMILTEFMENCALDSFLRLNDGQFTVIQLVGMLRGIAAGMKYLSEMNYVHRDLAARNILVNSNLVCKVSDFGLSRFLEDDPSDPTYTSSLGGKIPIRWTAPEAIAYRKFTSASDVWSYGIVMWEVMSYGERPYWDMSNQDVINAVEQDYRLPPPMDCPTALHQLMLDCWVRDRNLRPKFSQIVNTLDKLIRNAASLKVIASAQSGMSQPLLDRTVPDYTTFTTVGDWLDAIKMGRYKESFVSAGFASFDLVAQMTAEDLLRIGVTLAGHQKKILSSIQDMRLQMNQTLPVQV

Huh-7 = test: Cytotoxicity against human Huh-7 cells assessed as reduction in cell viability by alamar blue reagent based analysis; format: functional
Ephrin type-A receptor 4 [10] = target: T3, Ephrin type-A receptor 4; test: Inhibition of full length EPHA4 (unknown origin) expressed in HEK293T cells using NanoBRET NanoGlo substrate incubated for 2 hrs in presence of K4 tracer by NanoBRET assay; format: cell-based
[11] = target: T1, Vascular endothelial growth factor receptor 1; test: Inhibition of full length FLT1 (unknown origin) expressed in HEK293T cells using NanoBRET NanoGlo substrate incubated for 2 hrs in presence of K9 tracer by NanoBRET assay; format: cell-based
[12] = target: Tyrosine-protein kinase ABL1 (Homo sapiens, UniProt P00519); test: Inhibition of full length ABL1 (unknown origin) expressed in HEK293T cells using NanoBRET NanoGlo substrate incubated for 2 hrs in presence of K4 tracer by NanoBRET assay; format: cell-based
[13] = target: T4, Fibroblast growth factor receptor 1; test: Inhibition of full length FGFR1 (unknown origin) expressed in HEK293T cells using NanoBRET NanoGlo substrate incubated for 2 hrs in presence of K10 tracer by NanoBRET assay; format: cell-based
Ephrin type-A receptor 2 [14] = target: T6, Ephrin type-A receptor 2 (Homo sapiens, UniProt P29317)
Description: Induction of stabilization of recombinant EPHA2 (D596 to G900 residues) (unknown origin) expressed in Escherichia coli rosetta BL21(D3)-R3-pRARE2 competent cells assessed as change in melting temperature by differential scanning fluorimetry assay

Ephrin type-A receptor 2 [15] = target: T6, Ephrin type-A receptor 2; remark: listed apart in the source
Description: Binding affinity to recombinant his tagged EPHA2 (D596 to G900 residues) (unknown origin) expressed in Escherichia coli rosetta BL21(D3)-R3-pRARE2 competent cells assessed as dissociation constant by surface plasmon resonance method

[16] = Metabolic stability in Sprague-Dawley rat liver microsomes assessed as parent compound remaining at 10 uM measured after 60 min by HPLC analysis; format: ADME, Microsome; settings: read-out: Stability
[17] = Solubility of the compound measured after 24 hrs by HPLC/MS analysis; format: physicochemical

T3 sequence (P54764 whole entry): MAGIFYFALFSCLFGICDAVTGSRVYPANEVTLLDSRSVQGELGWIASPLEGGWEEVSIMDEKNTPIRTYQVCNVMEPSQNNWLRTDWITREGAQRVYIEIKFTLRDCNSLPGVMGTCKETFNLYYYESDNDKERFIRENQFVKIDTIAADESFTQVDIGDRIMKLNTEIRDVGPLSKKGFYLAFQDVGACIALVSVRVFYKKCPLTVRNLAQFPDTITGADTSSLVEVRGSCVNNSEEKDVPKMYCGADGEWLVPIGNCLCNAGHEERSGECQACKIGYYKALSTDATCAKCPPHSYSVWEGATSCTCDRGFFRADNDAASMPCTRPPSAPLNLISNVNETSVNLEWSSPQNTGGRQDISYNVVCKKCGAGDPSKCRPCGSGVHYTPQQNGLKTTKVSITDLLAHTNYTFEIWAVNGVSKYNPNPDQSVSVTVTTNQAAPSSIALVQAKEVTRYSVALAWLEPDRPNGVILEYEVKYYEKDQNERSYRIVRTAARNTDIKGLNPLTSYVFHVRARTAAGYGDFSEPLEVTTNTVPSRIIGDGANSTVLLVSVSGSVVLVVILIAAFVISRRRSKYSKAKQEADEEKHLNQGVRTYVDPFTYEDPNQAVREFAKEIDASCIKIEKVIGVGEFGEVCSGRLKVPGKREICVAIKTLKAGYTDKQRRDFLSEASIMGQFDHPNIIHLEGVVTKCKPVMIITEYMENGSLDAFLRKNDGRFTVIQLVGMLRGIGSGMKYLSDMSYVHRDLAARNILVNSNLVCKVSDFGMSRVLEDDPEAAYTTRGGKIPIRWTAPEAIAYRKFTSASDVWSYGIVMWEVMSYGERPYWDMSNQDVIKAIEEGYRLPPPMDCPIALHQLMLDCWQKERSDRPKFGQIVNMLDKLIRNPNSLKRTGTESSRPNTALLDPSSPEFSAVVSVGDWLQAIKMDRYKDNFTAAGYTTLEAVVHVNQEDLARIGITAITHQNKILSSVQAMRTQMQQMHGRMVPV
Sequence of Fibroblast growth factor receptor 2 (Homo sapiens) (P21802 22-821 limits assumed): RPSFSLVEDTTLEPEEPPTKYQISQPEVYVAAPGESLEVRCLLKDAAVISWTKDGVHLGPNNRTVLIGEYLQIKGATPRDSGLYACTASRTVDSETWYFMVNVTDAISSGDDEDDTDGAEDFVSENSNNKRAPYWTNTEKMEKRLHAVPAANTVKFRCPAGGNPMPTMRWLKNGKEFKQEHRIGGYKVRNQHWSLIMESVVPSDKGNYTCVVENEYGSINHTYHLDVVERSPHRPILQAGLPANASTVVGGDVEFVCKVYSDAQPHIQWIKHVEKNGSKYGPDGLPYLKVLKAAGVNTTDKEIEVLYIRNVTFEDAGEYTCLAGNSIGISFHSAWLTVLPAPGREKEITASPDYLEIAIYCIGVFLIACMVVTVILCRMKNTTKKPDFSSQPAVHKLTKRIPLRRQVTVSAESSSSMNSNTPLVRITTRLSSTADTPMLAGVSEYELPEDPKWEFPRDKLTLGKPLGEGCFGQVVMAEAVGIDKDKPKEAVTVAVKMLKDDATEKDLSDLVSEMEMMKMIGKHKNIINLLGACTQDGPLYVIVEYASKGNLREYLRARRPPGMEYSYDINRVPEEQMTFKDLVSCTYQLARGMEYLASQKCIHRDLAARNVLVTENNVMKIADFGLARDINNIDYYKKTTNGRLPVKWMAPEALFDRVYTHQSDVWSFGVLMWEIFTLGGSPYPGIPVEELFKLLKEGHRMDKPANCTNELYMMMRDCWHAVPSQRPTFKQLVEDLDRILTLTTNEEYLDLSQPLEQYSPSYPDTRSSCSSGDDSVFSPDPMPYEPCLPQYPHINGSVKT
Sequence of Ephrin type-A receptor 5 (Homo sapiens) (P54756 whole entry): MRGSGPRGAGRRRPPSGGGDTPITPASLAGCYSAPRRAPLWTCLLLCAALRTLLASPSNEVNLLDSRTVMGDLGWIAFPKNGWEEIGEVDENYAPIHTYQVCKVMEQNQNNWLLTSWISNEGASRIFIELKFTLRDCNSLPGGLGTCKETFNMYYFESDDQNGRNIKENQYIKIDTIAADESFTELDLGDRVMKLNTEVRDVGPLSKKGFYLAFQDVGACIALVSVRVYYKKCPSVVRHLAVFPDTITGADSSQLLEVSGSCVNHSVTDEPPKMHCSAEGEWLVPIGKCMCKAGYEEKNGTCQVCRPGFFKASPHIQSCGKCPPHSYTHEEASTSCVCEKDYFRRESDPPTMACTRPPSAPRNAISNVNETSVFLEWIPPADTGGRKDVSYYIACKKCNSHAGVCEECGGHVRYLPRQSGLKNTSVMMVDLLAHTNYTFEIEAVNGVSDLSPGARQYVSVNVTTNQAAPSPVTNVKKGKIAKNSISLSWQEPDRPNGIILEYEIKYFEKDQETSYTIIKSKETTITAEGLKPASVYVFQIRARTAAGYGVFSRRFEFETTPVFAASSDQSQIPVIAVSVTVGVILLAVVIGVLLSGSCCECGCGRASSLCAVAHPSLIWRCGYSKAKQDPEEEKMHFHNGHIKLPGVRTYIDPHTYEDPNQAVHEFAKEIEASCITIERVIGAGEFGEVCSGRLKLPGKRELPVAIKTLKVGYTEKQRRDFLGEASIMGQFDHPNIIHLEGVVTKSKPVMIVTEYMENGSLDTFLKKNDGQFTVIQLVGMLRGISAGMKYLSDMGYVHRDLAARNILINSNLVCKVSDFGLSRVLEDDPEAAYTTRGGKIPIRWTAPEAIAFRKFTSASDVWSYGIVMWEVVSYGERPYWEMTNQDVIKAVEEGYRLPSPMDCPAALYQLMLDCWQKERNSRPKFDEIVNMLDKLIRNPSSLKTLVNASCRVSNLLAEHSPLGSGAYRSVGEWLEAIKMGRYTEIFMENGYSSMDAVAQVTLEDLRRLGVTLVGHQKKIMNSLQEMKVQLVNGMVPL
Sequence of Ephrin type-A receptor 7 (Homo sapiens) (Q15375 28-998 limits assumed): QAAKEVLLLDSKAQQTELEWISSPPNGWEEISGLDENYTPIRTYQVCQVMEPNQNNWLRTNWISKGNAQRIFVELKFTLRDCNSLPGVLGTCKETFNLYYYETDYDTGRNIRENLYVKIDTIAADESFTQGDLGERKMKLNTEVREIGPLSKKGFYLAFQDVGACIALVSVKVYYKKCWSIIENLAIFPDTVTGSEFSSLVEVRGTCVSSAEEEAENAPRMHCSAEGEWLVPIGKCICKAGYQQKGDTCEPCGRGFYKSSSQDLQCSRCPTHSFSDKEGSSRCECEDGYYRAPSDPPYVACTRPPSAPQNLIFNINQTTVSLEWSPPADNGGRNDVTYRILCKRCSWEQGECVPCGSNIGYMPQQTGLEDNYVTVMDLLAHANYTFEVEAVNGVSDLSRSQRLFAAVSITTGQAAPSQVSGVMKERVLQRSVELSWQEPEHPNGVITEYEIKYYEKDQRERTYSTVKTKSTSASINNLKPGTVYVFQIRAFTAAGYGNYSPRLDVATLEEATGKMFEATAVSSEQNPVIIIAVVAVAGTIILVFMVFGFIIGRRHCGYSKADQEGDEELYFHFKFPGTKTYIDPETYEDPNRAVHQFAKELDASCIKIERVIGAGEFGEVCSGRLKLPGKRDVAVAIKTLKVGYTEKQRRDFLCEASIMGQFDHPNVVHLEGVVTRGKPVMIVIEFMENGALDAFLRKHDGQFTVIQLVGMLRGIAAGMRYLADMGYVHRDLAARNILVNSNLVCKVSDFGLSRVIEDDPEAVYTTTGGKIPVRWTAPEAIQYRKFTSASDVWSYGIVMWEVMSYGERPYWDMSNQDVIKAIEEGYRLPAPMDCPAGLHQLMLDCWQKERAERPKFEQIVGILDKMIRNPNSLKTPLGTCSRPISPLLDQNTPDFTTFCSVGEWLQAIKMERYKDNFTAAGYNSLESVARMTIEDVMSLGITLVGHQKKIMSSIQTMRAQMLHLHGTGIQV

| EC50 (dengue virus type 2) [µM] | EC90 (dengue virus type 2) [µM] | EC50 (Ephrin type-A receptor 4 [10]) [µM] | EC50 [11] [µM] | EC50 [12] [µM] | EC50 [13] [µM] | SMILES | half-life at 10 µM [1] [h] | deltaTm [2] [K] | deltaTm [3] [K] | deltaTm [4] [K] | deltaTm [5] [K] | deltaTm (Ephrin type-A receptor 4 [6]) [K] | deltaTm [7] [K] | deltaTm [8] [K] | deltaTm [9] [K] | CC50 (Huh-7) [µM] | deltaTm (Ephrin type-A receptor 2 [14]) [K] | Kd (Ephrin type-A receptor 2 [15]) | remaining at 1 h, 10 µM [16] [%] | solubility at 24 h [17] [µg/mL] |
| --- | --- | --- | --- | --- | --- | --- | --- | --- | --- | --- | --- | --- | --- | --- | --- | --- | --- | --- | --- | --- |
| 6.5 | > 10 | 0.048 | > 50 | 49 | > 50 | O=C(Nc1ccccc1Cl)c1cnc2ccc(C3CCNCC3)cn12 |  |  |  |  |  |  |  |  |  | > 10 |  |  |  |  |
| > 10 | > 10 |  |  |  |  | COCCOc1ccc2cc1S(=O)(=O)NCCCNc1nc(ncc1-c1ccc(F)c(OC)c1)N2 |  | 1.8 | 1 | 4.5 | 2.6 | 4.5 | 5.4 | 2.5 | 3.1 | > 10 |  |  |  |  |
| > 10 | > 10 |  |  |  |  | COc1cc(-c2cnc3nc2NCCCNS(=O)(=O)c2cc(ccc2OC)N3)ccc1F |  | 1.3 | 1 | 3.4 | 3.1 | 4.4 | 4.7 | 2 | 1.6 | > 10 |  |  |  |  |
|  |  |  |  |  |  | CCNc1nc(Nc2cccc(S(=O)(=O)NC)c2)ncc1-c1ccc(F)c(OC)c1 |  |  |  |  |  |  |  |  |  |  | 4.2 | Not Active |  |  |

| SMILES | EC50 (dengue virus type 2) [µM] | EC90 (dengue virus type 2) [µM] | EC50 (Ephrin type-A receptor 4 [10]) [µM] | EC50 [11] [µM] | EC50 [12] [µM] | EC50 [13] [µM] | half-life at 10 µM [1] [h] | deltaTm [2] [K] | deltaTm [3] [K] | deltaTm [4] [K] | deltaTm [5] [K] | deltaTm (Ephrin type-A receptor 4 [6]) [K] | deltaTm [7] [K] | deltaTm [8] [K] | deltaTm [9] [K] | CC50 (Huh-7) [µM] | deltaTm (Ephrin type-A receptor 2 [14]) [K] | Kd (Ephrin type-A receptor 2 [15]) | remaining at 1 h, 10 µM [16] [%] | solubility at 24 h [17] [µg/mL] |
| --- | --- | --- | --- | --- | --- | --- | --- | --- | --- | --- | --- | --- | --- | --- | --- | --- | --- | --- | --- | --- |
| COc1cc(-c2cnc3nc2NCCCNS(=O)(=O)c2cccc(c2)N3)ccc1F | > 10 | > 10 |  |  |  |  | 6.6 | 6.3 | 0.3 | 4.4 | 4.3 | 3.6 | 5.4 | 3.3 | 5.6 | > 10 |  |  |  |  |
| COc1cc(-c2cnc3nc2NCCCNS(=O)(=O)c2cccc(c2)N3)ccc1Br | 5.3 | 9.8 |  |  |  |  | 4.6 | 2.6 | 0.1 | 2.4 | 2.8 | 3.2 | 5 | 1.8 | 4 | > 10 |  |  | 87 | 2.24 (≈ 4.57 µM) |
